# T1: Caci_0382 (Catenulispora acidiphila, UniProt C7PVH9)
# T1 construct: homodimer
# T1 sequence (C7PVH9 1-134): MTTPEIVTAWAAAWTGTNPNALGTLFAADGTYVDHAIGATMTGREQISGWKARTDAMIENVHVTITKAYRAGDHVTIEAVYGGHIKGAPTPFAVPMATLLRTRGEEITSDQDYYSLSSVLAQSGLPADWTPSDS
# B1: Caci_0382 from Catenulispora acidiphila DSM 44928 (natural protein)
# chain: T1 sequence (C7PVH9 1-134)
# modifications: selenomethionine-labeled
# notes: Caci_0382, hypothetical protein of the NTF2-like family, Catenulispora acidiphila DSM 44928; the gene encodes a 134 amino-acid protein of 14.3 kDa; Subcloned in the pMCSG57 vector, which adds a 6 His-Tag at the N-terminus; 131 Calpha atoms per subunit were aligned between the two crystal forms; also called hypothetical protein Caci_0382
# How the values were obtained:
# Caci_0382 [1] = target: T1, Caci_0382; assay: fluorescence thermal shift (Sypro Orange); assay type: binding; settings: read-out: Tm shift at 0.1 mM
# Caci_0382 [2] = target: T1, Caci_0382; assay: fluorescence thermal shift (Sypro Orange); assay type: binding; settings: 20 mM Hepes pH 7.5, 150 mM NaCl; 14 μM protein; printed as Tm but evidently the Tm shift; unit and concentration not given; in °C (unit assumed)
# [3] = target: the molecule itself; assay: SEC; gel-filtration chromatography, data not shown
molecule,measurement,setting,value
"CN(C)C [TMA, trimethylamine]",ΔTm at 100 µM,Caci_0382 [1],3 °C
c1c[nH]cn1 [Imidazole],Tm,Caci_0382 [2],10.26
B1,stoichiometry N,[3],2

# From PMC3955178, “Structural characterization of a hypothetical protein: a potential agent involved in trimethylamine metabolism in Catenulispora acidiphila” (Journal of Structural and Functional Genomics, 2014)
